Results published in patent US20120283334A1, “Treatment of Viral Infections” (Biocopea, Ltd., priority 2009, published 2012).

Test system: influenza (A/PR/8/34), H1N1 virus
Experiment: In vivo mouse influenza challenge, bupropion metabolite by oral gavage
Conditions: H1N1-infected mice
From the text: 6) In Vivo Mouse Studies Using Bupropion Metabolite
The bupropion metabolite known as 2-(1,1-dimethylethyl)amino-1-(3-chlorophenyl)propan-1-ol (BC1053), in 10% ethanol, was delivered orally to influenza infected mice, as follows.
Two groups of n=12 C57BLK/6 barrier reared female mice (6-8 weeks old, and between 15-18 g in weight) were intranasally challenged with a lethal dose of influenza (A/PR/8/34). On day 3 post-challenge, the animals received the following treatments: group A received an oral gavage of 100 μl of 10% Ethanol in water; and group B received an oral gavage of 100 μl containing 540 μg of bupropion metabolite in 10% Ethanol in water.
The animals were weighed and monitored daily for morbidity and mortality up to day 6, when all animals were culled. Average weight loss per group and survival were calculated.
As described above, mice were infected with a H1N1 virus which was allowed to become established in each of the subjects. Each test mouse was then treated with 2-(1,1-dimethylethyl)amino-1-(3-chlorophenyl)propan-1-ol (i.e. a bupropion metabolite, BC1053) with a single dose on day 3 after infection with the virus. In the control mice, no metabolite was administered. The weight loss of both treated and untreated mice was then determined.

**Q.** What does the source list for `CC(NC(C)(C)C)C(O)c1cccc(Cl)c1` (centres unmarked) [BC1053, 2-(1,1-dimethylethyl)amino-1-(3-chlorophenyl)propan-1-ol]?
**A.** lower reduction in weight loss than the control mice (single oral dose 540 μg on day 3, FIG. 4): ≥ 30%; higher survival rate than the control, untreated mice (single oral dose 540 μg on day 3, FIG. 5): about 30%
